Data on one molecule can be found in the NIST ThermoML archive (doi:10.1021/acs.jced.8b01256).

The conditions of data set [1]: Crystal; DSC.
Data set [2] can be described thus: Molar enthalpy of transition or fusion. The conditions noted are these: Crystal; DSC.

± gives the expanded uncertainty stated by the source.

Consider `Cc1[nH]nc2cc([N+](=O)[O-])ccc12` [3-methyl-6-nitroindazole], for which, in data set [1], the Triple point temperature was found to be 460.15 ± 1 K. Moreover, the “Molar enthalpy of transition or fusion” value in data set [2] amounted to 10.7 ± 0.38 kJ/mol.
